Values quoted from earlier work, collected in patent EP4537663A1, “INCLUSION COMPLEX COMPRISING TRYPTOPHAN AND ARGININE; FERTILISING, BIOSTIMULANT AND ANTIMICROBIAL COMPOSITION COMPRISING SAME; PRODUCTION METHOD THEREOF; AND USE THEREOF” (Universidad de Valladolid, priority 2022, dated 2023).
Values after ≈ are worked out from the molar mass of the structure shown.

Details: at 25°C

solubility in water: ~11.4 mg/mL (≈ 55.8 mM)
Structure (SMILES): N[C@@H](Cc1c[nH]c2ccccc12)C(=O)O [tryptophan]
